Data on 87 compounds can be found in a melting point compilation (Tetko et al.; mined from patent text by program, amines drawn as free bases though some values may be those of a salt).

A value given as a limit tells only on which side of the number the result lay.

For the compound `Cc1c(Br)cccc1NS(=O)(=O)c1cc(S(=O)(=O)Nc2cccc(Br)c2C)c2ccccc2c1O`, the melting point was in the range of 246 to 248 °C.
As to `COC=C(Br)c1c(C(F)(F)F)nc(C(F)F)c(C(=O)OC)c1CC1CC1`, the melting point lay within 79 to 79.5 °C.
In turn, `CCCCc1nc2ccccn2c(=O)c1-c1ccc(N)cc1` came in with a melting point of 95 to 97 °C.
Compound `CS(=O)(=O)C(=C1CN(C(c2ccccc2)c2ccccc2)C1)c1cccc(OC(F)(F)F)c1` showed a melting point of 162 °C.
Regarding `O=C(NC[C@H]1CN(c2ccc3c(c2)CCCc2cnn(C(=O)c4ccccc4)c2-3)C(=O)O1)c1ccccc1`, the melting point was 75 to 95 °C.
In turn, `CCCCOc1ccc(C#CC2(O)CN3CCC2CC3)cc1` (single isomer, unassigned; (+)) had a melting point of 115 to 116 °C.
`Cc1cc(C(=O)O)ccc1C1=CCCCC1C(C)(C)C` (configuration not stated) returned a melting point of 152 °C.
In turn, `CN(C)C=C1C[N+]([O-])=C(c2ccccc2F)c2cc(Cl)ccc2C1=O` showed a melting point of 175 to 178 °C.
In the case of `CCCCc1cc2ccccc2c(Cc2ccc(C(=O)O)cc2)n1` it was 112 °C; in that of `CCC(NC(C)=O)c1ccc(CN2CCN(c3ccc(F)cc3)CC2)cc1` (configuration not stated), 113 to 114 °C; in that of `c1ccc(-c2ccc(Nc3nnc(Cc4ccncc4)c4ccccc34)cc2)cc1`, 189 to 191 °C.
As to `CCc1cc(OCc2nc3ccccc3o2)c(=O)[nH]c1C`, the melting point lay within 198 to 200 °C.
`CC(C)(C)OC(=O)NN=Cc1ccc(-c2ccccn2)cc1`: the melting point fell in the range of 169 to 172 °C.
As for `FC(F)(F)c1cc(OCc2ccc(-c3ccccc3-c3nnn(C(c4ccccc4)(c4ccccc4)c4ccccc4)n3)cc2)c2c(n1)CCCC2`, the melting point is 141 to 143 °C.
Turning to `COc1cc2ncc(C#N)c(Nc3ccc(C)cc3O)c2cc1OC`, the melting point was over 250 °C.
`CC(C)(C)C#Cc1cc([N+](=O)[O-])ccc1C(=O)O` had a melting point of 170 to 173 °C.
In the case of `COc1ccc(NC(=O)/C=C/c2ccc(N)c(F)c2)cc1N`, the melting point was 170 to 172 °C.
`Nc1ccc(CS(=O)(=O)NCCc2ccccc2)cc1` returned a melting point of 123 to 125 °C.
Take `O=C(Nc1n[nH]c(=S)s1)N[C@@H](Cc1ccccc1)C(=O)O`: the melting point is 130 °C.
In the case of `CC(=O)NCCOc1ccc([N+](=O)[O-])cc1O` it was 165 °C; in that of `COc1cncnc1N1CCN(CCCc2c[nH]c3ccc(-c4c(NC(C)C)c(=O)c4=O)cc23)CC1`, 104 to 106 °C; in that of `CN1C(C)(C)CC(O)CC1(C)C`, 70 to 71 °C.
In the case of `O=C1c2cc(Oc3ccc(F)cc3)ccc2CN1Cc1cccnc1` it was 115 to 116 °C; in that of `Cc1cccc(Nc2nc(N)ncc2S(N)(=O)=O)c1`, 213 to 215 °C; in that of `CCCOc1ccc(-c2ncccc2S(=O)(=O)Nc2ncc(C)nc2OC)cc1`, 134 to 135 °C.
The compound `CC(C)(C)OC(=O)N[C@@H](CO)C(=O)NCCO` came in with a melting point of 74 to 76 °C.
As for `CCC(O)(CC)c1cc(Br)ccc1N`, the melting point fell in the range of 64 to 66 °C.
Compound `CC(C)(C)NS(=O)(=O)c1cnc(-c2cn(-c3cc(C(F)(F)F)cc(-c4ccc(C(F)(F)F)cc4)n3)cn2)s1` showed a melting point of 236 °C.
In turn, `O=C1NC(=O)C(CC#Cc2cc(C(F)(F)F)cc(C(F)(F)F)c2)(S(=O)(=O)c2ccccn2)S1` (configuration not stated) yielded a melting point of 150 to 152 °C.
Consider `O=C(O)c1cccc(Oc2ccc(O)cc2)c1`, for which the melting point lay within 163 to 166 °C.
The compound `CCc1nc2ccccc2n1C1CCN(CCCNc2ccc(F)cc2)CC1` came in with a melting point of 121 to 124 °C.
As for `CCn1cc(-c2cnccn2)cc(Br)c1=O`, the melting point was 129 to 132 °C.
With `Brc1nccc2ncccc12`, the melting point fell in the range of 112 to 113 °C.
`CCCc1nc2c(N)nc3c(c2n1CCCC(=O)N1CCOCC1)CCCC3` came in with a melting point of 181 to 183 °C.
`CCN1C(=O)C(C(N)=O)(c2ccc(Cl)c(Cl)c2)OS1=O` (configuration not stated) yielded a melting point of 127 to 128 °C.
Take `NS(=O)(=O)c1ccc(C2=C(c3ccc(Cl)c(Cl)c3)CCC2)cc1`: the melting point fell in the range of 134 to 135 °C.
The compound `O=C1Cc2cc(-c3cnc4[nH]c(=O)n(CC5CCCCC5)c4n3)ccc2N1` returned a melting point of 313 to 316 °C.
In turn, `CC(=O)Cn1nc(-c2sc(N)nc2-c2ccccc2)ccc1=O` had a melting point of 216 to 219 °C.
Compound `COc1c(CN)c2c(c3c1OC(C)(C)C3)C(c1ccccc1)=NC(C)(C)C2` showed a melting point of 140 to 142 °C.
With `COC(=O)c1cccc(-c2cc(-c3ccc(C(F)(F)F)cc3)on2)c1` the figure was 139 to 140 °C.
Take `OCc1cn(Cc2cc(OCc3ccccc3)cc(OCc3ccccc3)c2)cc1-c1ccccc1`: the melting point was 115 to 116 °C.
With `N#CC(O)C(=O)c1ccccc1` (configuration not stated) the figure was 100 to 105 °C; with `CC(C)(N=C=O)c1ccc2cc(C(C)(C)N=C=O)ccc2c1`, 85.5 to 87 °C; with `O=C1OC(=O)c2nc(C(Cl)(Cl)Cl)ccc21`, 126 to 127 °C.
As to `CCCN(CCC)S(=O)(=O)c1cccc(C2(O)CCC(=O)N2C)c1` (configuration not stated), the melting point was in the range of 58 to 60 °C.
`CCOC(=O)C1=C(CO)NC(CF)=C(C(=O)OCC)C1c1cccc([N+](=O)[O-])c1` (configuration not stated) came in with a melting point of 149 to 150 °C.
Consider `COC(=O)C=Cc1cc(F)cc(Br)c1`, for which the melting point lay in the range of 95 to 96 °C.
On to `CC(C)CCS(=O)(=O)NC(=O)/C=C/c1cc(OC(C)C)nn1Cc1ccc(C(F)(F)F)cc1Cl`, for which the melting point was 139 to 140 °C.
For `c1ccc2c(c1)ncn2CN1CCN(Cn2cnc3ccccc32)CC1`, the melting point lay within 250 to 253 °C.
`CS(=O)(=O)Nc1ccc([N+](=O)[O-])cc1N` showed a melting point of 201 to 204 °C.
For `CCc1c2n(c3ccccc13)C(=O)C(Cc1ncn(C(c3ccccc3)(c3ccccc3)c3ccccc3)c1C)CC2` (configuration not stated), the melting point lay within 78 to 82 °C.
With `CN(C1CCN(Cc2ccc(F)cc2)CC1)S(=O)(=O)c1ccc(Nc2nccc(Nc3ccc(F)cc3)n2)cc1` the figure was 129 to 131 °C; with `Cc1cc(Oc2c(Cl)cc(C(F)(F)F)cc2Cl)nn1C(=O)NCC(F)(F)F`, 104 to 106 °C; with `COc1ccc(CS(=O)(=O)c2cc3cc(Br)ccc3oc2=O)cc1`, 231 to 232 °C.
In the case of `Cc1cc(-c2nnc3c4ccccc4c(OCc4ccnn4C)nn23)no1` it was 270 °C; in that of `CCCN(c1ccncc1Cl)n1cc(C)c2ccccc21`, 68 to 70 °C.
In the case of `CC(C)(O)CONC(=O)c1ccc(F)c(F)c1Nc1ccc(I)cc1Cl`, the melting point lay within 140 to 153 °C.
On to `Cn1c(C(=O)O)cc2c(OC[C@@H](O)CN3CCC(c4ccc5ccccc5c4)CC3)cccc21`, for which the melting point was 158 to 161 °C.
In the case of `FC(F)(F)c1ccc(-c2oncc2CCl)cc1` it was 99 to 100 °C; in that of `CS(=O)c1cccc(NC(=O)NCC(=O)N(CC(=O)N2CCCc3ccccc32)c2ccccc2)c1` (racemic), 140 °C; in that of `O=CNCc1c[nH]c(=S)n1[C@H]1CCc2c(F)cc(F)cc2C1`, 245 to 246 °C.
The compound `CC1CCCN(C(=O)COc2cc(-c3ccccc3)nc3ccccc23)C1` (configuration not stated) registered a melting point of 96 °C.
`O=c1nc(-c2cccc(-c3ccccc3)n2)sc2ccccc12` displayed a melting point of 195 to 197 °C.
In the case of `COc1cc(C(C)=O)ccc1OCCCN1CCC(c2noc3cc(F)ccc23)CC1` it was 118 to 120 °C.
In turn, `COc1cc(Nc2c(C#N)cnc3cc(-c4ccc(CN5CCN(CCO)CC5)cc4)sc23)c(Cl)cc1Cl` returned a melting point of 189 to 190 °C.
Compound `O=C(CCCN1CCN(c2ccc(CO)c(Cl)c2)CC1)c1ccc(Cl)cc1` yielded a melting point of 137 to 139 °C.
`CCOC(=O)C(C(=O)CCC(C)C)C1c2ccccc2C(=O)N1c1ccc2ccc(F)nc2n1` (configuration not stated) came in with a melting point of 140 °C.
In the case of `COc1cccc(Sc2ccc(O)cc2)n1` it was 88.5 to 94.5 °C; in that of `CC(=O)Oc1ccc(Cc2n[nH]c3c2c(=O)n(-c2ccccc2)c2ncccc32)cc1`, 278 to 282 °C.
The compound `O=C(O)CCCCc1ccc([N+](=O)[O-])cn1` displayed a melting point of 105 to 107 °C.
The compound `COP(=O)(Cc1ccc(CP(=O)(OC)OC)cc1)OC` yielded a melting point of 106 °C.
With `CCc1nc(-c2ccc(OC)cc2)c(-c2cccnc2)s1`, the melting point lay within 59 to 60 °C.
Compound `Cc1nc(NC(=N)N)sc1C(=O)N1CC[C@@H](COCC(=O)O)C1` displayed a melting point of 136 °C.
As for `COc1cc2c(c3c1OC(C)(C)C3)C(c1ccc(N)cc1)=NC(C)(C)C2`, the melting point was 192 to 195 °C.
The compound `CCCc1nc2ccccc2[nH]1` returned a melting point of 160 to 162 °C.
Consider `CCOCc1nc2c(N)nc3ccccc3c2n1CC(=O)CC`, for which the melting point fell in the range of 187 to 188 °C.
`CCOC(=O)N1CC(C)N(C(C)C(O)(Cn2cncn2)c2ccc(F)cc2F)CC1C` (configuration not stated) showed a melting point of 57 to 59 °C.
Regarding `N#Cc1cc(Cl)c(-n2ncc(-c3nc(C#N)c(C#N)[nH]3)n2)c(Cl)c1`, the melting point was in the range of 183 to 185 °C.
`Cn1c(COc2ccc(CC3SC(=O)NC3=O)cc2)nc2ccc(Oc3ccc(NC(=O)C4CCCC4)cc3)cc21` (configuration not stated) gave a melting point of 227 to 228 °C.
Regarding `NC(=CC(=O)N1CCn2c(nnc2C(F)(F)F)C1)Cc1cc(F)c(F)cc1F`, the melting point stood at 271 °C.
Compound `O=C(Nc1ccc(-c2cnc(-c3ccc(NC(=O)C4CCCCC4)cc3)[nH]2)cc1)c1cccnc1` displayed a melting point of 315 to 317 °C.
Take `CCCCc1nc(C(O)C(C)(C)C)c(C#N)n1Cc1ccc(-c2ccccc2-c2nnnn2C(c2ccccc2)(c2ccccc2)c2ccccc2)cc1` (configuration not stated): the melting point lay within 134 to 135 °C.
In the case of `CCc1cc([N+](=O)[O-])c(N)c([N+](=O)[O-])c1COC` it was 71 to 73 °C; in that of `O=C(NCCO)c1cc(-c2ccnc(Nc3cccc(OC(F)(F)C(F)F)c3)n2)ccn1`, 159 °C.
In the case of `CC(C)n1nc(-c2cnc(N)nc2-c2ccc(F)c(F)c2)ccc1=O` it was 208 °C; in that of `CCc1ccc(C2CCCCC2)nc1`, 79 to 81 °C; in that of `Cc1cc(Cl)c(C)cc1O`, 74 to 75 °C.
